Laboratory results taken from US8871758B2, “Tetrasubstituted oxathiazine derivatives, method for producing them, their use as medicine and drug containing said derivatives and the use thereof” (Sanofi, priority 2011, dated 2014).

Target: T1, human 11β-HSD1 (Homo sapiens, UniProt P28845)
T1 construct: host or cells: microsome fraction
Assay: Enzymatic 11beta-HSD1 test (SPA-based detection)
Assay type: biochemical
Details: human 11β-HSD1 microsome fraction, [1,2-3H]-cortisone substrate, NADPH, 37° C. 1 hour, read-out: IC50 (nM), Biological activity in nanomolar
Procedure: Enzymatic 11beta-HSD1 Test:
First of all, 20 μl of the human 11β-HSD1 microsome fraction (0.2 μg of protein), prepared in 50 mM HEPES, 0.1% BSA (w/v), were applied to a plate with 384 wells. The test compounds (0.09 μl) were applied to the assay plate in 100% DMSO. The reaction was started by addition of 20 μl of [1,2-^3H]-cortisone (0.1 μCi/[…]) in assay buffer comprising 25 mM HEPES, 100 mM KCl, 5 mM NaCl, 2 mM MgCl2 and 0.25 mM NADPH. The plate was agitated at 37° C. for 1 hour. At the same time, a stop solution comprising 20 mg/ml SPA-PVT beads, 1.6 mg/ml monoclonal cortisol antibody and 0.01 mM SSR110887 (inhibitor from the Biovitrium patent) in 50 mM HEPES, 1 M NaCl and 1 M KCl was stirred at room temperature. To stop the reaction, 25 μl of the stop solution were added to each well. The plate was agitated gently at room temperature for 1 further hour and then centrifuged at 500 gav for 1 min, in order that the SPA beads could settle out. […] The comparative compound was glycyrrhetinic acid.
Protein and radioactive substrate were dispensed with a Biomek FX unit (Beckman Coulter) for handling liquids. The test compounds were added with a Cybi-Well equipped with a 90 n1 pin tool (CyBio).
Lit.: Solly S, Mundt S S, Zokian H J, Juy-Fang Ding G, Hermanowski-Vosatka A, Strulovici B and Zheng W. High-throughput screening of 11β-Hydroxysteroid dehydrogenase type 1 in scintillation proximity format.

T1 sequence (P28845 whole entry): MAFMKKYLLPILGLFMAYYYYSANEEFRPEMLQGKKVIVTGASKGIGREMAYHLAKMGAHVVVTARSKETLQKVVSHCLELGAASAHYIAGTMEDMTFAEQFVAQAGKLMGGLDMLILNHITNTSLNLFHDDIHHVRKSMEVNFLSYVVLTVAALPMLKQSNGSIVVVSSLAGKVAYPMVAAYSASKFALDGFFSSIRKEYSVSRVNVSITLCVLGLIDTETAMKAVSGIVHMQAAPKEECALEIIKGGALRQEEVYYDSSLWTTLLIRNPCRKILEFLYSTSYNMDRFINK

| IC50 | Compound |
| --- | --- |
| 586 nM | CC(C)(O)C[C@H](NC1=NS(=O)(=O)C(C)(C)C(C)(C)O1)c1cccnc1 [Example 16, (S)-2-Methyl-4-pyridin-3-yl-4-(5,5,6,6-tetramethyl-4,4-dioxo-5,6-dihydro-4H-4lambda6-[1,4,3]oxathiazin-2-ylamino)-butan-2-ol] |
| 560 nM | CC1(C)OC(N[C@H]2CCC[C@H](O)C2)=NS(=O)(=O)C1(C)C [Example 18, (1S,3S)-3-(5,5,6,6-Tetramethyl-4,4-dioxo-5,6-dihydro-4H-4lambda6-[1,4,3]oxathiazin-2-ylamino)-cyclohexanol] |
| 786 nM | CC1(CO)OC(NC2CCCCC2)=NS(=O)(=O)C12CC2 (stereo not shown) [Example 7, (6-Cyclohexylamino-8-methyl-4,4-dioxo-7-oxa-4lambda6-thia-5-aza-spiro[2.5]oct-5-en-8-yl)-methanol] |
| 4 nM | CC1(C)OC(NC23CCC(F)(CC2)CC3)=NS(=O)(=O)C1(C)C [Example 9, (4-Fluoro-bicyclo[2.2.2]oct-1-yl)-(5,5,6,6-tetramethyl-4,4-dioxo-5,6-dihydro-4H-4lambda6-[1,4,3]oxathiazin-2-yl)-amine] |
| 5 nM | C[C@H](NC1=NS(=O)(=O)C(C)(C)C(C)(C)O1)c1ccccc1F [Example 21, [(S)-1-(2-Fluoro-phenyl)-ethyl]-(5,5,6,6-tetramethyl-4,4-dioxo-5,6-dihydro-4H-4lambda6-[1,4,3]oxathiazin-2-yl)-amine] |
| 462 nM | COCC1(C)OC(NC2CCCCC2)=NS(=O)(=O)C12CC2 (stereo not shown) [Example 4, Cyclohexyl-(8-methoxymethyl-8-methyl-4,4-dioxo-7-oxa-4lambda6-thia-5-aza-spiro[2.5]oct-5-en-6-yl)-amine] |
| 19 nM | CC1(C(F)(F)F)OC(NC2CCCCC2)=NS(=O)(=O)C12CC2 (stereo not shown) [Example 13, Cyclohexyl-(8-methyl-4,4-dioxo-8-trifluoromethyl-7-oxa-4lambda6-thia-5-aza-spiro[2.5]oct-5-en-6-yl)-amine] |
| 22 nM | CC1(C)OC(NC23CCC(F)(CC2)CC3)=NS(=O)(=O)C12CC2 [Example 8, (8,8-Dimethyl-4,4-dioxo-7-oxa-4lambda6-thia-5-aza-spiro[2.5]oct-5-en-6-yl)-(4-fluoro-bicyclo[2.2.2]oct-1-yl)-amine] |
| 4 nM | CC1(C)OC(NC23CCC(CC2)CC3)=NS(=O)(=O)C1(C)C [Example 15, Bicyclo[2.2.2]oct-1-yl-(5,5,6,6-tetramethyl-4,4-dioxo-5,6-dihydro-4H-4lambda6-[1,4,3]oxathiazin-2-yl)-amine] |
| 289 nM | CC1(C)OC(N[C@@H]2CCC[C@@H](O)C2)=NS(=O)(=O)C1(C)C [Example 25, (1R,3R)-3-(5,5,6,6-Tetramethyl-4,4-dioxo-5,6-dihydro-4H-4lambda6-[1,4,3]oxathiazin-2-ylamino)-cyclohexanol] |
| 37 nM | CC1(C)OC(N[C@@H](CCO)c2ccccc2)=NS(=O)(=O)C12CC2 [Example 5, (S)-3-(8,8-Dimethyl-4,4-dioxo-7-oxa-4lambda6-thia-5-aza-spiro[2.5]oct-5-en-6-ylamino)-3-phenyl-propan-1-ol] |
| 10 nM | CC1(C)OC(N[C@@H](CS(N)(=O)=O)c2ccc(F)cc2)=NS(=O)(=O)C1(C)C (single isomer, unassigned) [Example 14] |
| 73 nM | CC1(COCc2ccccc2)OC(NC2CCCCC2)=NS(=O)(=O)C12CC2 (stereo not shown) [Example 6, (8-Benzyloxymethyl-8-methyl-4,4-dioxo-7-oxa-4lambda6-thia-5-aza-spiro[2.5]oct-5-en-6-yl)-cyclohexyl-amine] |
